Values of other authors, collected in patent US20100112033A1, “STENTS COATED WITH NO- AND S-NITROSOTHIOL-ELUTING HYDROPHLIC POLYMERIC BLENDS” (Universidade Estadual de Campinas UNICAMP, priority 2005, published 2010).

Legend:
[1] = tested on: platelet aggregation; conditions: compared to non-nitrosated polymer
[2] = tested on: neointimal formation; conditions: compared to non-nitrosated polymer
[3] = tested on: stenosis; conditions: applied to damaged vascular site, rabbit coronary artery
[4] = tested on: neointimal hyperplasia; conditions: patients, six months after stenting

Substance | reduction of platelet aggregation [1] | reduction of neointimal formation [2] [%] | effect on stenosis [3] | neointimal hyperplasia [4]
bovine S-nitrosated albumin: nitrosated protein, a protein adduct of nitric oxide | 50-70% | 40 | proved to reduce stenosis | 
sirulimus |  |  |  | minimal neointimal hyperplasia
